{
  "source": "paper PMC8333425",
  "about": "“Discovery of a dual Ras and ARF6 inhibitor from a GPCR endocytosis screen” (Nature Communications, 2021)",
  "assay_type_in_all_cases": "cell-based, human",
  "key": {"[1]": {"test_system": "ERK1/2 activation by EGFR", "experiment": "Western blot of EGFR-mediated ERK1/2 phosphorylation", "settings": "for p-ERK1/2 over ERK1/2, normalized to basal (0 min), EGFR: Comp 21 50 μM; for p-ERK1/2 over ERK1/2, normalized to basal (0 min), EGFR / ERK 1/2 activation, EGFR (p-ERK1/2 over ERK1/2, fold over basal): individual experiments", "description": "(§1) HEK293SL cells (10^5 cells per well) were seeded in a poly-L-lysine-coated six-well plate and transiently transfected with 3 μg Flag-AT1R, HA-B2R or HA-β2AR and/or 500 ng Flag-MEK1-WT, Flag-MEK1-DD, Flag-BRAF-WT, Flag-BRAF-V600E, Flag-K-Ras-WT, Flag-K-Ras-G12V, HA-ARF6-WT, or HA-ARF6-T27N. Gαq/11 KO and βarr1/2 KO cells were seeded onto 100 mm dishes at a density of 10^6 cells per dish. Next day, cells were transfected with 3 μg AT1R alone or along with 500 ng of β-arrestin2 using PEI. After 18 h of transfection, cells were detached and re-seeded onto poly-L-lysine coated 12-well plates (~1.5–2 × 10^5cells/well) for subsequent experiments. Forty-eight hours post transfection, in a 37 °C water bath, cells were serum-starved for 30 min, pretreated with DMSO (0.1%) or compound 21/Rasarfin (50 µM or at indicated concentrations) for 30 min, then stimulated or not with the indicated ligand [AngII (1 µM), BK (1 µM), Iso (10 µM) or EGF (100 ng/ml)] at indicated times. Cells were put on ice, washed with PBS and solubilized in 2x laemmli buffer (250 mM Tris–HCl pH 6.8, 2% SDS (w/v), 10% glycerol (v/v), 0.01% bromophenol blue (w/v) and 5% β-mercaptoethanol (v/v)) by heating at 65 °C for 15 min. Lysates were resolved on 10 or 14% SDS-PAGE, transferred to nitrocellulose membranes and immunoblotted for p-ERK1/2, ERK1/2, p-Akt, Akt, HA, Myc, β-actin or FLAG. ImageLab 5.2 software was used to quantify the digital blots as fold of the phosphorylated protein over total protein, which were then normalized as indicated in the figure legends. Uncropped immunoblots are provided in the Source Data file."}, "β-arrestin2": {"test_system": "β-arrestin2", "experiment": "Confocal microscopy of β-arrestin2-YFP trafficking with B2R", "settings": "50 μM; BK", "description": "One day before transfection, cells were seeded in 35-mm glass-bottom dishes (MatTek Corporation) at a density of 1 × 10^5 cells per dish. For the recordings of receptor internalization, HEK293 SL cells were transfected with 2 μg of AT1R-YFP. For the recordings of β-arrestin-2 recruitment to the receptor, HEK293SL cells were transfected with 50 ng of β-arrestin2-YFP and 250 ng of Flag-AT1R or HA-B2R. Forty-eight hours post-transfection, cells were serum starved, preincubated with DMSO (0.1% final concentration) or Rasarfin (50 μM) for 30 min at 37 °C. AT1R-expressing cells were stimulated with angiotensinII (AngII; 100 nM) and B2R-expressing cells were stimulated with bradykinin (BK; 1 μM) for 30 min (receptor-YFP) or 15 min (β-arrestin2-YFP). Cells were imaged with Zeiss LSM-510 and/or LSM-710 laser scanning confocal microscope. To detect YFP, […] and BP 505–550 nm emission filter. Images (2048 × 2048) were collected using a 63x oil immersion lens."}, "Akt activation by EGFR": {"test_system": "Akt activation by EGFR", "experiment": "Western blot of EGFR-mediated Akt activation", "settings": "for AKT activation, EGFR (p-Akt over Akt): individual experiments", "description": "as §1"}, "ERK1/2 activation by B2R": {"test_system": "ERK1/2 activation by B2R", "experiment": "Western blot of B2R-mediated ERK1/2 phosphorylation", "settings": "for p-ERK1/2 over ERK1/2, normalized to basal (0 min), B2R: Comp 21 50 μM, individual experiments", "description": "as §1"}},
  "note": "Where “and” joins values, the source holds several entries; their conditions need not be identical. Equal entries are not always repeated.",
  "data": [
    {"smiles": "CC(C)C(=O)N1CCN(c2ccc(NC(=O)c3cc4ccccc4o3)cc2Cl)CC1", "note": "[Compound 21]", "values": [
      {"measurement": "MAPK response promoted by EGFR", "setting": "[1]; 50 μM", "value": "blocked MAPK responses"},
      {"measurement": "p-ERK1/2 over ERK1/2, normalized to basal (0 min), EGFR", "setting": "[1]; time 0 min", "value": 1},
      {"measurement": "p-ERK1/2 over ERK1/2, normalized to basal (0 min), EGFR", "setting": "[1]; time 2 min", "value": "0.3674 and 5.171 and 13.8891 and 0.7219"},
      {"measurement": "p-ERK1/2 over ERK1/2, normalized to basal (0 min), EGFR", "setting": "[1]; time 5 min", "value": "0.3034 and 7.285 and 51.2032 and 0.6227"},
      {"measurement": "IC50", "setting": "[1]; Homo sapiens, read-out: IC50 for inhibition of ERK1/2 activation by EGFR", "value": 4, "unit": "µM"},
      {"measurement": "ERK 1/2 activation, EGFR (p-ERK1/2 over ERK1/2, fold over basal)", "setting": "[1]; Log [Comp 21] (M) -4.3", "value": "3.411 percent compared to DMSO and 1.173 percent compared to DMSO"},
      {"measurement": "ERK 1/2 activation, EGFR (p-ERK1/2 over ERK1/2, fold over basal)", "setting": "[1]; Log [Comp 21] (M) -5", "value": "5.269 percent compared to DMSO and 7.4638 percent compared to DMSO and 1.3341 percent compared to DMSO"},
      {"measurement": "ERK 1/2 activation, EGFR (p-ERK1/2 over ERK1/2, fold over basal)", "setting": "[1]; Log [Comp 21] (M) -5.3", "value": "22.8883 percent compared to DMSO and 78.7892 percent compared to DMSO and 45.9513 percent compared to DMSO"},
      {"measurement": "ERK 1/2 activation, EGFR (p-ERK1/2 over ERK1/2, fold over basal)", "setting": "[1]; Log [Comp 21] (M) -6", "value": "104.782 percent compared to DMSO and 74.7611 percent compared to DMSO"},
      {"measurement": "ERK 1/2 activation, EGFR (p-ERK1/2 over ERK1/2, fold over basal)", "setting": "[1]; Log [Comp 21] (M) -6.3", "value": "80.4826 percent compared to DMSO and 84.8524 percent compared to DMSO"},
      {"measurement": "ERK 1/2 activation, EGFR (p-ERK1/2 over ERK1/2, fold over basal)", "setting": "[1]; Log [Comp 21] (M) -7", "value": "108.069 percent compared to DMSO and 86.5762 percent compared to DMSO"},
      {"measurement": "β-arrestin trafficking with B2R into endosomes (microscopy)", "setting": "β-arrestin2", "value": "prevented β-arrestins’ trafficking with receptors into endosomes"},
      {"measurement": "IC50", "setting": "Akt activation by EGFR; Homo sapiens, read-out: potency for inhibition of EGFR-mediated Akt (western blot)", "value": "4 to 5", "unit": "µM"},
      {"measurement": "AKT activation, EGFR (p-Akt over Akt)", "setting": "Akt activation by EGFR; Log [Comp 21] (M) -4.3", "value": "12.9009 percent compared to DMSO and 28.9803 percent compared to DMSO and 32.6041 percent compared to DMSO"},
      {"measurement": "AKT activation, EGFR (p-Akt over Akt)", "setting": "Akt activation by EGFR; Log [Comp 21] (M) -5", "value": "21.4684 percent compared to DMSO and 57.877 percent compared to DMSO and 33.8957 percent compared to DMSO"},
      {"measurement": "AKT activation, EGFR (p-Akt over Akt)", "setting": "Akt activation by EGFR; Log [Comp 21] (M) -5.3", "value": "42.6879 percent compared to DMSO and 80.2621 percent compared to DMSO and 48.2006 percent compared to DMSO"},
      {"measurement": "AKT activation, EGFR (p-Akt over Akt)", "setting": "Akt activation by EGFR; Log [Comp 21] (M) -6", "value": "93.9059 percent compared to DMSO and 99.6926 percent compared to DMSO and 89.9021 percent compared to DMSO"},
      {"measurement": "AKT activation, EGFR (p-Akt over Akt)", "setting": "Akt activation by EGFR; Log [Comp 21] (M) -6.3", "value": "94.5153 percent compared to DMSO and 100.709 percent compared to DMSO and 97.0491 percent compared to DMSO"},
      {"measurement": "AKT activation, EGFR (p-Akt over Akt)", "setting": "Akt activation by EGFR; Log [Comp 21] (M) -7", "value": "104.373 percent compared to DMSO and 93.1512 percent compared to DMSO and 83.461 percent compared to DMSO"},
      {"measurement": "MAPK response promoted by B2R", "setting": "ERK1/2 activation by B2R; 50 μM", "value": "blocked MAPK responses"},
      {"measurement": "p-ERK1/2 over ERK1/2, normalized to basal (0 min), B2R", "setting": "ERK1/2 activation by B2R; time 0 min", "value": "1 (3×) and 1.039"},
      {"measurement": "p-ERK1/2 over ERK1/2, normalized to basal (0 min), B2R", "setting": "ERK1/2 activation by B2R; time 2 min", "value": "1.954 and 3.081 and 1.486 and 1.1152"},
      {"measurement": "p-ERK1/2 over ERK1/2, normalized to basal (0 min), B2R", "setting": "ERK1/2 activation by B2R; time 5 min", "value": "0.9797 and 0.9619 and 1.157 and 1.051"}
    ]}
  ]
}
